According to US8575091B1, “Amylin analogues and pharmaceutical compositions thereof” (Novo Nordisk A/S, priority 2012, dated 2013):
Numbered stars: 1 amine (or outer) side, 2 acyl side, 3 side chain; on linkers, the order of the positions; unused ones are H or OH. Bridge positions count the residues as written; N and C are the ends. Side chains are listed from the residue outwards. Peptide text beside a SMILES is read from it. * marks the point of attachment. C20 diacid = O=C(O)CCCCCCCCCCCCCCCCCCC(=O)*; γGlu = O=C(O)[C@H](CCC(=O)[*:2])N[*:1]

Legend:
[1] = molecular target: T1, human calcitonin receptor (Homo sapiens, UniProt P30988); assay: Assay (VII) binding to the human calcitonin receptor (SPA, 125I-Calcitonin); conditions: read-out: hCTR bind IC50;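 further: cell membranes coupled to SPA beads, competitive displacement read by scintillation counting, IC50 derived from a one-site competition fit as a measure of receptor affinity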
T1 construct: expressed in transfected cells
T1 sequence (P30988 25-474): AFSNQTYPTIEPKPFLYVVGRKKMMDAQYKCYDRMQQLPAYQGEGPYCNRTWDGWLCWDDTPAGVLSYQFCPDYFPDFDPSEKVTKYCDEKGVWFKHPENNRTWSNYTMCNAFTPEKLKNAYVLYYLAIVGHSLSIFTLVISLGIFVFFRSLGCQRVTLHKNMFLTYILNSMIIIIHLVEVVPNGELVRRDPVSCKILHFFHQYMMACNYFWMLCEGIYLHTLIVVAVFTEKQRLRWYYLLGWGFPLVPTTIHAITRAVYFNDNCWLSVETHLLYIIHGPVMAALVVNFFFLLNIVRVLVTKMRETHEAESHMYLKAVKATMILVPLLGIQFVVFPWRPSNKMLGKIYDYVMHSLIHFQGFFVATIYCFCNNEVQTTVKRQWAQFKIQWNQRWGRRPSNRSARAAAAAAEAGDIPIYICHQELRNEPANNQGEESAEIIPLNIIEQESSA

[2] = molecular target: T1, human calcitonin receptor; assay: Assay (II)a functional assay, human calcitonin receptor (CRE luciferase, BHK cells);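 further: luminescence from a CRE-driven luciferase reporter, read by single photon counting after cells were exposed to test samples for 3 h at 37 °C under 5% CO2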; type: cell-based; conditions: read-out: hCTR funct. EC50
[3] = molecular target: T2, human amylin receptor (amylin 3(a) receptor: human calcitonin receptor + RAMP-3) (Homo sapiens, UniProt O60896+P30988); assay: Assay (II)a functional assay, human amylin receptor (CRE luciferase, BHK cells); type: cell-based; conditions: for EC50: functional assay, human amylin receptor, read-out: hAmylin-R funct. EC50
T2 construct: expressed in transfected cells
T2 sequence (P30988 25-474): T1 sequence (P30988 25-474)
T2 sequence (O60896 24-148 partner): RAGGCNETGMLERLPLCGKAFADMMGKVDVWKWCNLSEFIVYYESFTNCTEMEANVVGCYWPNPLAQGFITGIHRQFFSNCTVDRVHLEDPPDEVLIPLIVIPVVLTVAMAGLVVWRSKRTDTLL

human amylin receptor = molecular target: T3, human amylin receptor (Homo sapiens, UniProt O60896+P30988); assay: Assay (V) binding to the human amylin receptor (SPA, 125I-rat amylin); conditions: for IC50: human amylin receptor membranes, SPA, read-out: hAmylin-R bind IC50
T3 construct: expressed in transfected cells
T3 sequence (P30988 25-474): T1 sequence (P30988 25-474)
T3 sequence (O60896 24-148 partner): T2 sequence (O60896 24-148 partner)
Summary of the method: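 SPA competition binding on membranes from Amylin 3(a)/CRE-luc cells, 35 ng/μL membranes with 0.05 mg/well beads. Buffer 50 mM Hepes pH 7.4, 1 mM CaCl2, 5 mM MgCl2, 0.1% OA, 0.02% Tween20. IC50 from one-site competition fit as affinity measure.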

Sprague-Dawley rats = assay: Assay (XI) single subcutaneous administration, food intake monitored for 48 hours in rats; type: in vivo, rat; conditions: single subcutaneous 30 nmol/kg
Procedure: Assay (XI)—Effect from Single Subcutaneous Administration of Analogue on […] in Rats
Male Sprague-Dawley rats (Taconic Europe, ˜250 g at test date) were acclimatized to reversed day light cycle (lights on from 10 PM to 10 AM) and single housing in online food intake monitoring system (Ellegaard MBRose, Denmark) prior to study start. Rats were divided in groups of five and subcutaneously dosed with test compound (30 nmol/kg) and food intake was monitored for 48 hours hereafter. Data are illustrated in graphs as mean±SEM.

Wistar rats = assay: Assay (XII) single subcutaneous administration, plasma calcium in rats; type: in vivo, rat; conditions: for Plasma calcium red (%) 0-12 h: single s.c., maximal reduction 0-12 h, compared to vehicle; for suppression of plasma calcium level relative to vehicle: single subcutaneous, over 24 hours
Procedure: Assay (XII)—Effect from Single Subcutaneous Administration of Analogue on Plasma Calcium in Rats
Male Wistar rats (Taconic Europe, ˜250 g at test date) were acclimatized to handling prior to the study. Rats were divided in groups of five and subcutaneously dosed with test compound at time=0. At time T=−15 min; 1 h, 2 h, 4 h, 7 h, 12 h, and 24 h a blood sample was obtained and heparin stabilized plasma was analysed for total calcium (Cobas, Hitachi). Data are illustrated in graphs as mean±SEM.

[4] = Table 6, human functional selectivity (hCTR EC50 / hAmylin-R EC50)
[5] = Table 6a, human functional selectivity (hCTR EC50 / hAmylin-R EC50), at least 5
[6] = Table 6i, hCTR funct. EC50 / hAmylin-R funct. EC50
[7] = Table 6j, hCTR funct. EC50 / hAmylin-R funct. EC50
[8] = Table 6k, hCTR funct. EC50 / hAmylin-R funct. EC50

| IC50 [1] [nM] | EC50 [2] [nM] | EC50 [3] [nM] | IC50 (human amylin receptor) [nM] | Ratio hCT/hAmylin funct. [3, 4] | Ratio hCT/hAmylin funct. [3, 5] | Ratio hCT/hAmylin funct. [3, 6] | Ratio hCT/hAmylin funct. [3, 7] | Ratio hCT/hAmylin funct. [3, 8] | Ratio hCT/hAmylin binding (human amylin receptor; Table 7b, human calcitonin receptor binding IC50 divided by human amylin receptor binding IC50) | Ratio hCT/hAmylin binding (human amylin receptor; Table 7c, human calcitonin receptor binding IC50 divided by human amylin receptor binding IC50) | Ratio hCT/hAmylin binding (human amylin receptor; human binding ratio, included for comparison) | SMILES | food intake monitored over 48 hours versus vehicle (Sprague-Dawley rats) | Plasma calcium red (%) 0-12 h (Wistar rats; 30 nmol/kg) [%] | suppression of plasma calcium level relative to vehicle (Wistar rats; increasing doses (all doses tested)) | Plasma calcium red (%) 0-12 h (Wistar rats; 3 nmol/kg) [%] | suppression of plasma calcium level relative to vehicle (Wistar rats; 3 nmol/kg) | suppression of plasma calcium level relative to vehicle (Wistar rats; 30 nmol/kg) | suppression of plasma calcium level relative to vehicle (Wistar rats; 100 and 300 nmol/kg) | suppression of plasma calcium level relative to vehicle (Wistar rats; 1000 nmol/kg) |
| --- | --- | --- | --- | --- | --- | --- | --- | --- | --- | --- | --- | --- | --- | --- | --- | --- | --- | --- | --- | --- |
| 56.9 | 14.1 | 0.34 | 0.697 |  |  |  |  |  |  |  |  | CC[C@H](C)[C@H](NC(=O)[C@H](C)NC(=O)CNC(=O)[C@H](Cc1ccccc1)NC(=O)[C@H](CC(N)=O)NC(=O)[C@@H]1CCCN1C(=O)[C@H](CO)NC(=O)[C@H](CO)NC(=O)[C@H](Cc1c[nH]cn1)NC(=O)[C@H](CCCNC(=N)N)NC(=O)[C@H](CC(C)C)NC(=O)[C@H](Cc1ccccc1)NC(=O)[C@H](CC(=O)O)NC(=O)[C@H](C)NC(=O)[C@H](CC(C)C)NC(=O)[C@H](CCCNC(=N)N)NC(=O)[C@H](CCC(N)=O)NC(=O)[C@@H](NC(=O)[C@H](C)NC(=O)[C@@H]1CSSC[C@H](NC(=O)[C@@H](N)CCCCNC(=O)CC[C@H](NC(=O)CC[C@H](NC(=O)CCCCCCCCCCCCCCCCCCC(=O)O)C(=O)O)C(=O)O)C(=O)N[C@@H](CC(N)=O)C(=O)N[C@@H]([C@@H](C)O)C(=O)N[C@@H](C)C(=O)N[C@@H]([C@@H](C)O)C(=O)N1)[C@@H](C)O)C(=O)N1CCC[C@H]1C(=O)N[C@@H](CO)C(=O)N[C@@H](CO)C(=O)N[C@H](C(=O)N[C@@H](CC(N)=O)C(=O)N[C@H](C(=O)NCC(=O)N[C@@H](CO)C(=O)N[C@@H](CCCNC(=N)N)C(=O)N[C@H](C(=O)N[C@@H](Cc1ccc(O)cc1)C(N)=O)[C@@H](C)O)C(C)C)[C@@H](C)O [Example 52, N-ε-1-{(S)-4-carboxy-4-[(S)-4-carboxy-4-(19-carboxynonadecanoylamino)butyrylamino]butyryl}-[Asp14,Arg17,Pro21,Pro27,Arg35]-human amylin] | reduces food intake in rats | 12 | None of the doses trigger a notable suppression of the calcium level |  |  |  |  |  |
| 1.86 | 0.841 | 0.161 | 0.14 | 5.2 | 5.2 | 5.2 | 5.2 | 5.2 |  |  |  | CC[C@H](C)[C@H](NC(=O)[C@H](C)NC(=O)CNC(=O)[C@H](Cc1ccccc1)NC(=O)[C@H](CC(N)=O)NC(=O)[C@@H]1CCCN1C(=O)[C@H](CO)NC(=O)[C@H](CO)NC(=O)[C@H](Cc1c[nH]cn1)NC(=O)[C@H](CCCNC(=N)N)NC(=O)[C@H](CC(C)C)NC(=O)[C@H](Cc1ccccc1)NC(=O)[C@H](CCC(=O)O)NC(=O)[C@H](C)NC(=O)[C@H](CC(C)C)NC(=O)[C@H](CCCNC(=N)N)NC(=O)[C@H](CCC(N)=O)NC(=O)[C@@H](NC(=O)[C@H](C)NC(=O)[C@@H]1CSSC[C@H](NC(=O)[C@@H](N)CCCCNC(=O)CC[C@H](NC(=O)CCCCCCCCCCCCCCCCCCC(=O)O)C(=O)O)C(=O)N[C@@H](CC(N)=O)C(=O)N[C@@H]([C@@H](C)O)C(=O)N[C@@H](C)C(=O)N[C@@H]([C@@H](C)O)C(=O)N1)[C@@H](C)O)C(=O)N1CCC[C@H]1C(=O)N[C@@H](CO)C(=O)N[C@@H](CO)C(=O)N[C@H](C(=O)N[C@@H](CC(N)=O)C(=O)N[C@H](C(=O)NCC(=O)N1CCC[C@H]1C(=O)N[C@@H](CCC(=O)O)C(=O)N[C@H](C(=O)N[C@@H](Cc1ccc(O)cc1)C(N)=O)[C@@H](C)O)C(C)C)[C@@H](C)O [Example 109] (H-K([γGlu-C20 diacid])CNTATCATQRLAEFLRHSSPNFGAIPSSTNVGPETY-NH2; disulfide 2-7) | reduces food intake in rats | 27 |  | 7 | does not trigger a notable suppression of the calcium level | minor suppression of the calcium level | more pronounced suppression of the calcium level |  |
| 6.3 | 6.38 | 0.376 | 0.163 | 17.0 | 17.0 | 17.0 | 17.0 | 17.0 |  |  |  | CC[C@H](C)[C@H](NC(=O)[C@H](C)NC(=O)CNC(=O)[C@H](Cc1ccccc1)NC(=O)[C@H](CC(N)=O)NC(=O)[C@@H]1CCCN1C(=O)[C@H](CO)NC(=O)[C@H](CO)NC(=O)[C@H](Cc1c[nH]cn1)NC(=O)[C@H](CCCNC(=N)N)NC(=O)[C@H](CC(C)C)NC(=O)[C@H](Cc1ccccc1)NC(=O)[C@H](CCC(=O)O)NC(=O)[C@H](C)NC(=O)[C@H](CC(C)C)NC(=O)[C@H](CCCNC(=N)N)NC(=O)[C@H](CCC(N)=O)NC(=O)[C@@H](NC(=O)[C@H](C)NC(=O)[C@@H]1CSSC[C@H](NC(=O)[C@@H](N)CCCCNC(=O)CC[C@H](NC(=O)CCCCCCCCCCCCCCCCCCC(=O)O)C(=O)O)C(=O)N[C@@H](CC(N)=O)C(=O)N[C@@H]([C@@H](C)O)C(=O)N[C@@H](C)C(=O)N[C@@H]([C@@H](C)O)C(=O)N1)[C@@H](C)O)C(=O)N1CCC[C@H]1C(=O)N[C@@H](CO)C(=O)N[C@@H](CO)C(=O)N[C@H](C(=O)N[C@@H](CC(N)=O)C(=O)N[C@H](C(=O)NCC(=O)N1CCC[C@H]1C(=O)N[C@@H](CCCNC(=N)N)C(=O)N[C@H](C(=O)N[C@@H](Cc1ccc(O)cc1)C(N)=O)[C@@H](C)O)C(C)C)[C@@H](C)O [Example 117] (H-K([γGlu-C20 diacid])CNTATCATQRLAEFLRHSSPNFGAIPSSTNVGPRTY-NH2; disulfide 2-7) | reduces food intake in rats | 9 |  |  |  | None of the example compounds at 30 nmol/kg trigger a notable suppression of the calcium level |  |  |
|  |  |  |  |  |  |  |  |  | 28.0 | 28.0 | 28.0 | CC[C@H](C)[C@H](NC(=O)[C@H](C)NC(=O)CNC(=O)[C@H](Cc1ccccc1)NC(=O)[C@H](CC(N)=O)NC(=O)[C@@H]1CCCN1C(=O)[C@H](CO)NC(=O)[C@H](CO)NC(=O)[C@H](Cc1c[nH]cn1)NC(=O)[C@H](CCCNC(=N)N)NC(=O)[C@H](CC(C)C)NC(=O)[C@H](Cc1ccccc1)NC(=O)[C@H](CCC(=O)O)NC(=O)[C@H](C)NC(=O)[C@H](CC(C)C)NC(=O)[C@H](CCCNC(=N)N)NC(=O)[C@H](CCC(N)=O)NC(=O)[C@@H](NC(=O)[C@H](C)NC(=O)[C@@H]1CSSC[C@H](NC(=O)[C@@H](N)CCCCNC(=O)CC[C@H](NC(=O)CC[C@H](NC(=O)CCCCCCCCCCCCCCCCCCC(=O)O)C(=O)O)C(=O)O)C(=O)N[C@@H](CC(N)=O)C(=O)N[C@@H]([C@@H](C)O)C(=O)N[C@@H](C)C(=O)N[C@@H]([C@@H](C)O)C(=O)N1)[C@@H](C)O)C(=O)N1CCC[C@H]1C(=O)N[C@@H](CO)C(=O)N[C@@H](CO)C(=O)N[C@H](C(=O)N[C@@H](CC(N)=O)C(=O)N[C@H](C(=O)NCC(=O)N[C@@H](CO)C(=O)N[C@@H](CCCNC(=N)N)C(=O)N[C@H](C(=O)N[C@@H](Cc1ccc(O)cc1)C(N)=O)[C@@H](C)O)C(C)C)[C@@H](C)O [Example 89] (H-K([γGlu-γGlu-C20 diacid])CNTATCATQRLAEFLRHSSPNFGAIPSSTNVGSRTY-NH2; disulfide 2-7 (inferred); N-terminus and C-terminus assumed) | reduce food intake in rats | 7 |  |  |  | None of the example compounds at 30 nmol/kg trigger a notable suppression of the calcium level |  | more pronounced suppression of the calcium level |
